The IC50 is the concentration that gives 50% inhibition.

Where a name gives a salt, the structure may show the parent alone. Some results are limits rather than exact numbers.

Holding throughout (assay type): cell-based, Human
For assay [1], the system named is SKVLB (Ovarian; multidrug resistant). Kind of assay: In vitro cytotoxicity, microculture tetrazolium (MTT) assay, SKVLB. The settings on record: Homo sapiens; SKVLB multidrug resistant ovarian; 48 h with compound, further 48 h, MTT; Table 1. As to the method: (§1) The microculture tetrazolium assay was used to test in vitro cytotoxicity. This assay is described in Plumb, J. A. et al., 1989 Cancer Research 49, 4435-4440, which is herein incorporated by reference. The cytotoxicity of compounds towards tumor cells is measured in vitro using the assay. This assay method is based upon the ability of live, but not dead cells to reduce the yellow water soluble dye 3-(4,5-dimethylthiazol-2-yl)-2,5-diphenyltetrazolium bromide (MTT) to its water insoluble purple formazan product.
(§2) Human Tumor Cell lines, used were:
SKVLB (Ovarian; multidrug resistant)--Dr. V. Ling, Ontario Cancer Institute.
(§3) The cells were maintained in exponential growth in culture in minimal essential media (MEM) supplemented with non-essential amino acids, and containing 15% (v/v) fetal. bovine serum, 5 mM L-glutamine, 1 mM sodium pyruvate, and 0.1 U/ml insulin. All cell lines were grown at 37° C. in an atmosphere of 5% CO2 in air.
(§4) MTT: 2 mg/ml in phosphate buffered saline (stable at 4° C. in dark for 1 week).
(§5) Sorensen's buffer: 0.1M glycine/NaOH, pH 10.5, containing 0.1M NaCl.
(§6) Test compounds: 20 mM in DMSO and diluted to a final concentration of 200 μM in culture medium before use.
(§7) For each assay, doxorubicin is included as an inter-assay standard. This allows us to monitor the behaviour of the assay in general, and in particular, to check that the SKVLB line has maintained its resistant phenotype.
(§8) The assays are carried out in 96-well (8 well×12 well) microtiter plates. Serial dilutions of the compound are tested along the length of the plate. A 1:3 serial dilution of compound in culture medium covers a concentration range from 100 μM to 1.7 nM. Each concentration of compound is tested in quadruplet, allowing two compounds to be tested per plate. Wells containing no cells (blank) and cells with no test compound (control) are included on each plate.
(§9) Cells are plated out in 100 μl of culture medium in the microtiter plates at a density of around 1,500-4,000 cells per well. The plates are incubated overnight to allow the cells to become adherent after which the test compound is added (100 μl of appropriate dilution per well). The cells are incubated with test compound at 37° C. for 48 h after which the compound is replaced with fresh medium. After a further 48 h incubation at 37° C., 50 μl of MTT solution (2 mg/ml) is added to each well. The plates are incubated in the dark for 4 h at 37° C. after which the medium is removed. The MTT formazan product is extracted from the cells by the addition of 200 μl DMSO followed by 50 μl of Sorensen's buffer. The plates are shaken briefly and the absorbance at 570 nm is read using a Molecular Devices UV max plate reader. Curves are fit to the MTT assay data using a four parameter logistic equation, and the data are normalized to fit a 0% to 100% survival scale.

The test system of assay [2] is SKOV3 (Ovarian adenocarcinoma). Kind of assay: In vitro cytotoxicity, microculture tetrazolium (MTT) assay, SKOV3. The following applies: Homo sapiens, SK-OV-3; SKOV3 ovarian adenocarcinoma; 48 h with compound, further 48 h, MTT; Table 1. As to the method: as §1, §2
SKOV3 (Ovarian adenocarcinoma)--provided by Dr. V. Ling, Ontario Cancer Institute.
as §3, §4, §5, §6, §7, §8, §9

For assay [3], the system named is HT 29 (Colon adenocarcinoma). Put plainly: In vitro cytotoxicity, microculture tetrazolium (MTT) assay, HT29. The settings on record: Homo sapiens, HT-29, 48 h with compound, further 48 h, Table 1. As to the method: as §1, §2
HT 29 (Colon adenocarcinoma) ATCC catalog #HTB-38.
as §3, §4, §5, §6, §7, §8, §9

For the next assay, the system named is Lox (Melanoma). Kind of assay: In vitro cytotoxicity, microculture tetrazolium (MTT) assay, LOX. The settings on record: Homo sapiens, 48 h with compound, further 48 h, Table 1. As to the method: as §1, §2
Lox (Melanoma)--Southern Research Institute.
as §3, §4, §5, §6, §7, §8, §9

Assay [4] deals with T47D (Ductal carcinoma of breast). Kind of assay: In vitro cytotoxicity, microculture tetrazolium (MTT) assay, T47D. The following applies: Homo sapiens, 48 h with compound, further 48 h, Table 1. As to the method: as §1, §2
T47D (Ductal carcinoma of breast)--ATCC catalog #HTB-133.
as §3, §4, §5, §6, §7, §8, §9

Regarding `CC(=O)C1CC2=C(C(=O)c3ccccc3C2=O)C(OCC2CCCN(C(=O)OC(C)(C)C)C2)O1` (mixture of isomers) [BCH2060, Methyl-(1-O-[N-BOC-3-piperidinemethanol]-5,6-dioxo-3,4,5,10-tetrahydronaphthaleno-[2,3-c]pyran-3-yl) ketone], the IC50 was 2.5 µM in assay [1]; 1.14 µM in assay [2]; 0.26 µM in assay [3]; 1.95 µM in the assay with Lox (Melanoma); 0.562 µM in assay [4].
Consider `CC(=O)C1CC2=C(C(=O)c3ccccc3C2=O)C(OCC2CCCNC2)O1` (mixture of isomers) [BCH2061, Methyl-(1-O-[3-piperidinemethanol]-5,10-dioxo-3,4,5,10-tetrahydronaphthaleno-[2,3-c]pyran-3-yl) ketone hydrochloride salt], for which the IC50 came to 0.141 µM in assay [1]; 0.0083 µM in assay [2]; 0.054 µM in assay [3]; 0.045 µM with Lox (Melanoma); 0.27 µM in assay [4].
With `CC(=O)C1CC2=C(C(=O)c3ccccc3C2=O)C(O[C@H]2C[C@H](NC(=O)C(F)(F)F)[C@H](OS(C)(=O)=O)[C@H](C)O2)O1` (mixture of isomers) [BCH2095, (1'-S, 1-S, 3-R) and (1'-S, 1-R, 3-S)-methyl-(1-[2',3',4',6' tetradeoxy-3'-trifluoroacetamido-4'-O-methane-sulfonyl-L-lyxohexopyranose)-5,10-dioxo-3,4,5,10 tetrahydronaphtho-[2,3-c]pyran-3-yl) ketone], the half-maximal inhibitory concentration (IC50) came to 1.6 µM in assay [1]; 0.19 µM in assay [2]; 0.0996 µM in assay [3]; 0.14 µM in the assay with Lox (Melanoma); 0.37 µM in assay [4].
As to `CC(=O)CC1CC2=C(C(=O)c3cccc(O)c3C2=O)C(O[C@H]2C[C@H](NC(=O)C(F)(F)F)[C@H](O)[C@H](C)O2)O1` (mixture of isomers) [BCH2098, (1'-S, 1-S, 3-R) and (1'-S, 1-R, 3-S)-1-(6-hydroxy-1-(2',3',6'-trideoxy-3'-trifluoroacetamido, 4-hydroxy-L-lyxopyranose)-5,10-dioxo-3,4,5,10 tetrahydronaphtho-[2,3-c]pyran-3-yl) propane-2-one], the IC50 was determined as 30 µM in assay [1]; 8 µM in assay [2]; 17 µM in assay [3]; 4.2 µM in the assay with Lox (Melanoma); 10 µM in assay [4].
With `CO[C@@H]1O[C@H](C(=O)Nc2ccccc2)CC2=C1C(=O)c1ccccc1C2=O` (relative stereo) [BCH2042, (1,3-cis)-anline-(1-methoxy-5,10-dioxo-3,4,5,10-tetrahydro-1H-naphtho-[2,3-c]-pyran)-3-carboxamide], the IC50 is 13.2 µM in assay [1]; 3.8 µM in assay [2]; 1.2 µM in assay [3]; 2.22 µM in the assay with Lox (Melanoma); 8 µM in assay [4].
For the compound `CC(=O)C1CC2=C(CO1)C(=O)c1ccccc1C2=O` (stereo not drawn) [BCH1125, Methyl (5,10-dioxo-3,4,5,10-tetrahydronaphtho [2,3-C]pyran-3-yl) ketone], the IC50 is 92.9 µM in assay [1]; over 100 µM in assay [2]; over 100 µM in assay [3]; 52.8 µM in the assay on Lox (Melanoma); 36.4 µM in assay [4].
On to `CC(=O)C1CC2=C(CO1)C(=O)c1ccc(O)cc1C2=O` (stereo not drawn) [BCH1129, Methyl (7-hydroxy-5,10-dioxo-3,4,5,10-tetrahydronaphtho [2,3-C]pyran-3-yl) ketone], for which the IC50 in assay [1] was over 100 µM; in assay [2] it was 73.3 µM; in assay [3] it was 63.2 µM; in the assay with Lox (Melanoma), 88.2 µM; in assay [4], 59.4 µM.
The like results for `CC(=O)C1CC2=C(C(=O)c3ccccc3C2=O)C(O)O1` (stereo not drawn) [BCH1148, Methyl (1-hydroxy-5,10-dioxo-3,4,5,10-tetrahydronaphtho [2,3-C]pyran-3-yl) ketone] were, in that order, over 100 µM, over 100 µM, over 100 µM, over 100 µM and over 100 µM.
In the case of `CC(=O)[C@H]1CC2=C(C(=O)c3ccc(O)cc3C2=O)[C@H](O[C@H]2C[C@H](NC(=O)C(F)(F)F)[C@H](O)[C@H](C)O2)O1` [BCH1180, (1'S,1S,3R)-Methyl (5,10-dioxo-1-(2',3',6'-trideoxy-3'-trifluoroacetamido-L-lyxohexopyranose)-7-hydroxy-3,4,5, 10-tetrahydro[2,3-C]pyran-3-yl) ketone], the IC50 in assay [1] stood at 8.68 µM; in assay [2] it was 0.851 µM; in assay [3], 0.468 µM; in the assay on Lox (Melanoma), 3.33 µM; in assay [4], 7.61 µM.
As for `CC(=O)[C@@H]1CC2=C(C(=O)c3ccc(O)cc3C2=O)[C@@H](O[C@H]2C[C@H](NC(=O)C(F)(F)F)[C@H](O)[C@H](C)O2)O1` [BCH1181, (1'S,1R,3S)-Methyl (5,10-dioxo-1-(2',3',6'-trideoxy-3'-trifluoroacetamido-L-lyxohexopyranose)-7-hydroxy-3,4,5, 10-tetrahydro[2,3-C]pyran-3-yl) ketone], the IC50 in assay [1] is 8.48 µM; in assay [2], 2.26 µM; in assay [3] it was 0.536 µM; in the assay with Lox (Melanoma), 3.07 µM; in assay [4] it was 9.23 µM.
`Nc1nc(C2CC3=C(CO2)C(=O)c2ccccc2C3=O)cs1` (stereo not drawn) [BCH1189]: the IC50 in assay [1] worked out at 26.6 µM; in assay [2], 6.5 µM; in assay [3], 16.6 µM; with Lox (Melanoma) it was 14.3 µM; in assay [4], 12.5 µM.
For `CC(=O)[C@@H]1CC2=C(C(=O)c3ccccc3C2=O)[C@@H](O[C@H]2C[C@H](NC(=O)C(F)(F)F)[C@H](I)[C@H](C)O2)O1` [BCH1620, (1'-S,1-R,3-S)-methyl-(1-[2',3',6'-trideoxy-3'-trifluoroacetamido-4'-iodo-L-lyxohexopyranose]-5,10-dioxo-3,4,5,10-tetrahydronaphtho-[2,3-c]-pyran-3-yl)-ketone] the same measures were 0.216 µM, 0.0042 µM, 0.0328 µM, 0.0227 µM and 0.183 µM.
The like results for `COCC1(COC)CC2=C(C(=O)c3ccccc3C2=O)[C@H](O[C@H]2C[C@H](NC(=O)C(F)(F)F)[C@H](O)[C@H](C)O2)O1` [BCH1697] were, in that order, 13.2 µM, 3.7 µM, 11 µM, 5.32 µM and 18 µM.
Consider `COC(=O)[C@H](CC(C)C)NC(=O)[C@H](CO[C@H]1O[C@H](C(C)=O)CC2=C1C(=O)c1ccccc1C2=O)NC(=O)OC(C)(C)C` [BCH1998, (1S,2'S,3S,5'S)-Methyl-(1-O-[N-BOC-Serine-Leucine-Me ester]-5,10-dioxo-3,4,5,10-tetrahydro-1-H-naphtho[2,3-c]pyran-3-yl) ketone], for which the IC50 in assay [1] came to 1.66 µM; in assay [2], 0.125 µM; in assay [3], 0.0363 µM; in the assay on Lox (Melanoma), 0.0631 µM; in assay [4], 0.114 µM.
In the case of `COC(=O)[C@H](CC(C)C)NC(=O)[C@@H](N)CO[C@H]1O[C@H](C(C)=O)CC2=C1C(=O)c1ccccc1C2=O` [BCH2000, (1S,2'S,3S,5'S)-Methyl-(1-O-[Serine-Leucine-Me ester]-5,10-dioxo-3,4,5,10-tetrahydro-1-H-naphtho[2,3-c]pyran-3-yl) ketone hydrochloride], the 50% inhibitory concentration (IC50) came to 6.64 µM in assay [1]; 0.095 µM in assay [2]; 0.0378 µM in assay [3]; 0.0905 µM in the assay on Lox (Melanoma); 0.338 µM in assay [4].

Values taken from US5606037A, “Processes antineoplastic heteronaphthoquinones” (BioChem Pharma Inc., priority 1995, dated 1997).
